Measurements as given in US20060058275A1, “Processes for preparing stabilized, highly pure rocuronium bromide” (priority 2004, published 2006).

What was measured:
Format in all cases: physicochemical
[1] = decomposition of rocuronium bromide in water at room temperature; conditions: aqueous solution, in 24 hours
Text: While freeze drying of the aqueous solution did reduce the isobutyl acetate level to an acceptable level of 0.26%, the impurity levels rose to 0.33%. […] This inherent instability in aqueous solution may explain thc observed rise in the impurities level in our hands.

[2] = hygroscopicity test at relative humidity of about 45%; conditions: within 24 hours, sample containing 3.1% acetic acid (stabilized solid of the invention)
Protocol: In another aspect, the present invention relates to an improved process for preparing a stable solid comprising substantially pure rocuronium bromide, which is substantially non-hygroscopic, because when subjected to hygroscopisity test at relative humidity of about 45%, a sample containing 3.1% acetic acid absorbed only about 2% water within 24 hours.

[3] = nature of product freeze dried from unbuffered degassed water (Example 5); conditions: Example 5: dissolved in degassed water and freeze dried, no buffer
Protocol: Rocuronium bromide (2 grams) prepared according to example 1 and dried in a manner similar to entries 1 and 2 in table 2 (see example 4), was dissolved in degassed water (30 ml) and freeze dried.

C=CC[N+]1(C2CC3C4CC[C@H]5C[C@H](O)C(N6CCOCC6)C[C@]5(C)C4CC[C@]3(C)[C@H]2OC(C)=O)CCCC1.[Br-] (stereo partly drawn) [rocuronium bromide, 1-[(2β,3α,5α,16β,17β)-17-acetoxy-3-hydroxy-2-(4-morpholinyl)-androstan-16-yl-]-1-(2-propenyl)pyrrolidinium bromide]
decomposition rate in water [1]: 0.25-0.5%
water absorbed [2]: about 2%
hygroscopicity of product [3]: highly hygroscopic
